Measured values taken from US10745382B2 (BRISTOL-MYERS SQUIBB COMPANY, priority 2015, dated 2020).
pIC50: −log10 of the molar value. Where two headings read alike, the source gives them in different places. Each block holds one compound with its values, some of them ahead of it.

Biological target: T1, PD-1/PD-L1 (Homo sapiens, UniProt Q9NZQ7)
T1 construct: made in house; host or cells: HEK293T
Assay: PD-1/PD-L1 Homogenous Time-Resolved Fluorescence (HTRF) binding assay
Conditions: PD-L1-His 10 nM, PD-1-Ig 20 nM, read-out: Range or IC50
In short: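 Compounds are tested for blocking the PD-1/PD-L1 interaction in dPBS supplemented with 0.1% BSA and 0.05% (v/v) Tween-20. Tagged proteins are detected with Eu-cryptate anti-Ig and APC anti-His at 1 and 20 nM final.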

T1 sequence (Q9NZQ7 with tags, fused parts or gaps): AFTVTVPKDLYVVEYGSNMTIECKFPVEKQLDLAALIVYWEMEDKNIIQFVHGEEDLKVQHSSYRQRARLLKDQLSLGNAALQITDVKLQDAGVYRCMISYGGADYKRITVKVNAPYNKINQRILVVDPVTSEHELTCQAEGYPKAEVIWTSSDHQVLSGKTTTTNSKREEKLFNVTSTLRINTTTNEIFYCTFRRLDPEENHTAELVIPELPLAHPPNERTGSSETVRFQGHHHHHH

pIC50 (value given as range class): 8.00 to 9.68
Compound: COC(=O)C1(O)CCN(CCCOc2cccc(-c3cccc(COc4cc(OCc5cncc(C#N)c5)c(CN5CCC(O)(C(=O)OC)CC5)cc4Cl)c3C)c2C)CC1 [Example 1091, methyl 1-(5-chloro-2-((5-cyanopyridin-3-yl)methoxy)-4-((3′-(3-(4-hydroxy-4-(methoxycarbonyl)piperidin-1-yl)propoxy)-2,2′-dimethyl-[1,1′-biphenyl]-3-yl)methoxy)benzyl)-4-hydroxypiperidine-4-carboxylate]

pIC50 (value given as range class): 8.00 to 9.68
Compound: CCOC(=O)C1(O)CCN(CCCOc2cccc(-c3cccc(COc4cc(OCc5cncc(C#N)c5)c(CN[C@@H](CO)C(=O)O)cc4Cl)c3C)c2Cl)CC1 [Example 1095, (5-chloro-4-((2′-chloro-3′-(3-(4-(ethoxycarbonyl)-4-hydroxypiperidin-1-yl)propoxy)-2-methyl-[1,1′-biphenyl]-3-yl)methoxy)-2-((5-cyanopyridin-3-yl)methoxy)benzyl)-L-serine]

pIC50 (value given as range class): 8.00 to 9.68
Compound: CCOC(=O)C1(CO)CCN(CCCOc2cccc(-c3cccc(COc4cc(OCc5cncc(C#N)c5)c(CN[C@](C)(CO)C(=O)O)cc4Cl)c3C)c2Cl)C1 (stereo partly drawn) [Example 1103, (2R)-2-((5-chloro-4-((2′-chloro-3′-(3-(3-(ethoxycarbonyl)-3-(hydroxymethyl)pyrrolidin-1-yl)propoxy)-2-methyl-[1,1′-biphenyl]-3-yl)methoxy)-2-((5-cyanopyridin-3-yl)methoxy)benzyl)amino)-3-hydroxy-2-methylpropanoic Acid]

pIC50 (value given as range class): 7.00 to 8.00
Compound: CCOC(=O)C1(CO)CCN(CCCOc2cccc(-c3cccc(COc4cc(OCc5cncc(C#N)c5)c(CN5CCC(CO)(C(=O)OCC)C5)cc4Cl)c3C)c2Cl)C1 (stereo not shown) [Example 1104, ethyl 1-(3-((2-chloro-3′-((2-chloro-5-((5-cyanopyridin-3-yl)methoxy)-4-((3-(ethoxycarbonyl)-3-(hydroxymethyl)pyrrolidin-1-yl)methyl)phenoxy)methyl)-2′-methyl-[1,1′-biphenyl]-3-yl)oxy)propyl)-3-(hydroxymethyl)pyrrolidine-3-carboxylate]

pIC50 (value given as range class): 8.00 to 9.68
Compound: CC(=O)NC1CCN(CCCOc2cccc(-c3cccc(COc4cc(OCc5cncc(C#N)c5)c(CN5CCCC[C@H]5C(=O)O)cc4Cl)c3C)c2C)CC1 [Example 1105, (S)-1-(4-((3′-(3-(4-acetamidopiperidin-1-yl)propoxy)-2,2′-dimethyl-[1,1′-biphenyl]-3-yl)methoxy)-5-chloro-2-((5-cyanopyridin-3-yl)methoxy)benzyl)piperidine-2-carboxylic Acid]

pIC50 (value given as range class): 7.00 to 8.00
Compound: Cc1c(COc2cc(OCc3cncc(C#N)c3)c(CN3CCCC[C@H]3C(=O)O)cc2Cl)cccc1-c1cccc(OCCCN2CCC(CO)(C(=O)O)CC2)c1C [Example 1110, (S)-1-(4-((3′-(3-(4-carboxy-4-(hydroxymethyl)piperidin-1-yl)propoxy)-2,2′-dimethyl-[1,1′-biphenyl]-3-yl)methoxy)-5-chloro-2-((5-cyanopyridin-3-yl)methoxy)benzyl)piperidine-2-carboxylic Acid]

The next lines start with the compound.

Compound: Cc1c(COc2cc(OCc3cncc(S(C)(=O)=O)c3)c(CN3CCCC[C@H]3C(=O)O)cc2Cl)cccc1-c1cccc(OCCCN2CC[C@H](O)C2)c1C [Example 1090, (S)-1-(5-chloro-4-((3′-(3-((S)-3-hydroxypyrrolidin-1-yl)propoxy)-2,2′-dimethyl-[1,1′-biphenyl]-3-yl)methoxy)-2-((5-(methylsulfonyl)pyridin-3-yl)methoxy)benzyl)piperidine-2-carboxylic Acid]
pIC50 (value given as range class): 8.00 to 9.68

Compound: Cc1cc(OCCCCN2CC[C@@H](O)C2)ccc1-c1cccc(COc2cc(OCc3cncc(C#N)c3)c(CN[C@H](CO)C(=O)O)cc2Cl)c1C [Example 1092, (5-chloro-2-((5-cyanopyridin-3-yl)methoxy)-4-((4′-(4-((R)-3-hydroxypyrrolidin-1-yl)butoxy)-2,2′-dimethyl-[1,1′-biphenyl]-3-yl)methoxy)benzyl)-D-serine]
pIC50 (value given as range class): 8.00 to 9.68

Compound: Cc1cc(OCCCCN2CC[C@@H](O)C2)ccc1-c1cccc(COc2cc(OCc3cncc(C#N)c3)c(CN3CCCC[C@H]3C(=O)O)cc2Cl)c1C [Example 1093, (S)-1-(5-chloro-2-((5-cyanopyridin-3-yl)methoxy)-4-((4′-(4-((R)-3-hydroxypyrrolidin-1-yl)butoxy)-2,2′-dimethyl-[1,1′-biphenyl]-3-yl)methoxy)benzyl)piperidine-2-carboxylic Acid]
pIC50 (value given as range class): 8.00 to 9.68

Compound: Cc1c(COc2cc(OCc3cncc(C(N)=O)c3)c(CN[C@](C)(CO)C(=O)O)cc2Cl)cccc1-c1cccc(OCCCN2CCC(O)(C(=O)O)CC2)c1C [Example 1094, (R)-1-(3-((3′-((5-((5-carbamoylpyridin-3-yl)methoxy)-4-(((2-carboxy-1-hydroxypropan-2-yl)amino)methyl)-2-chlorophenoxy)methyl)-2,2′-dimethyl-[1,1′-biphenyl]-3-yl)oxy)propyl)-4-hydroxypiperidine-4-carboxylic Acid]
pIC50 (value given as range class): 8.00 to 9.68

Compound: Cc1c(COc2cc(OCc3cncc(C#N)c3)c(CN3CCCC[C@H]3C(=O)O)cc2Cl)cccc1-c1cccc(OCCCN2CCC(O)(C(=O)O)CC2)c1Cl [Example 1097, (S)-1-(4-((3′-(3-(4-carboxy-4-hydroxypiperidin-1-yl)propoxy)-2′-chloro-2-methyl-[1,1′-biphenyl]-3-yl)methoxy)-5-chloro-2-((5-cyanopyridin-3-yl)methoxy)benzyl)piperidine-2-carboxylic Acid]
pIC50 (value given as range class): 8.00 to 9.68

Compound: CCOC(=O)C1(O)CCN(CCCOc2cccc(-c3cccc(COc4cc(OCc5cncc(C#N)c5)c(CN[C@](C)(CO)C(=O)O)cc4Cl)c3C)c2Cl)CC1 [Example 1098, (R)-2-((5-chloro-4-((2′-chloro-3′-(3-(4-(ethoxycarbonyl)-4-hydroxypiperidin-1-yl)propoxy)-2-methyl-[1,1′-biphenyl]-3-yl)methoxy)-2-((5-cyanopyridin-3-yl)methoxy)benzyl)amino)-3-hydroxy-2-methylpropanoic Acid]
pIC50 (value given as range class): 8.00 to 9.68

Compound: Cc1c(COc2cc(OCc3cncc(C#N)c3)c(CN[C@](C)(CO)C(=O)O)cc2Cl)cccc1-c1cccc(OCCCN2CCC(O)(C(=O)O)CC2)c1Cl [Example 1099, (R)-1-(3-((3′-((4-(((2-carboxy-1-hydroxypropan-2-yl)amino)methyl)-2-chloro-5-((5-cyanopyridin-3-yl)methoxy)phenoxy)methyl)-2-chloro-2′-methyl-[1,1′-biphenyl]-3-yl)oxy)propyl)-4-hydroxypiperidine-4-carboxylic Acid]
pIC50 (value given as range class): 8.00 to 9.68

Compound: CCOC(=O)C1(O)CCN(CCCOc2cccc(-c3cccc(COc4cc(OCc5cncc(C#N)c5)c(CN5CCCC[C@H]5C(=O)O)cc4Cl)c3C)c2Cl)CC1 [Example 1100, (S)-1-(5-chloro-4-((2′-chloro-3′-(3-(4-(ethoxycarbonyl)-4-hydroxypiperidin-1-yl)propoxy)-2-methyl-[1,1′-biphenyl]-3-yl)methoxy)-2-((5-cyanopyridin-3-yl)methoxy)benzyl)piperidine-2-carboxylic Acid]
pIC50 (value given as range class): 8.00 to 9.68

Compound: CCOC(=O)C1(CO)CCN(CCCOc2cccc(-c3cccc(COc4cc(OCc5cncc(C#N)c5)c(CN5CCCC[C@H]5C(=O)O)cc4Cl)c3C)c2Cl)C1 (stereo partly drawn) [Example 1101, (2S)-1-(5-chloro-4-((2′-chloro-3′-(3-(3-(ethoxycarbonyl)-3-(hydroxymethyl)pyrrolidin-1-yl)propoxy)-2-methyl-[1,1′-biphenyl]-3-yl)methoxy)-2-((5-cyanopyridin-3-yl)methoxy)benzyl)piperidine-2-carboxylic Acid]
pIC50 (value given as range class): 8.00 to 9.68

Compound: CCOC(=O)C1(CO)CCN(CCCOc2cccc(-c3cccc(COc4cc(OCc5cncc(C#N)c5)c(CN5CCC(CO)(C(=O)OCC)C5)cc4Cl)c3C)c2Cl)C1 (stereo not shown) [Example 1102, ethyl 1-(3-((2-chloro-3′-((2-chloro-5-((5-cyanopyridin-3-yl)methoxy)-4-((3-(ethoxycarbonyl)-3-(hydroxymethyl)pyrrolidin-1-yl)methyl)phenoxy)methyl)-2′-methyl-[1,1′-biphenyl]-3-yl)oxy)propyl)-3-(hydroxymethyl)pyrrolidine-3-carboxylate]
pIC50 (numeric IC50): 8.55

Compound: Cc1c(COc2cc(OCc3cncc(C#N)c3)c(CN3CCCC[C@H]3C(=O)O)cc2Cl)cccc1-c1cccc(OCCCN2CCC(CO)(C(=O)O)C2)c1Cl (stereo partly drawn) [Example 1106, (2S)-1-(4-((3′-(3-(3-carboxy-3-(hydroxymethyl)pyrrolidin-1-yl)propoxy)-2′-chloro-2-methyl-[1,1′-biphenyl]-3-yl)methoxy)-5-chloro-2-((5-cyanopyridin-3-yl)methoxy)benzyl)piperidine-2-carboxylic Acid]
pIC50 (numeric IC50): 9.00

Compound: Cc1c(COc2cc(OCc3cncc(C(N)=O)c3)c(CN3CCCC[C@H]3C(=O)O)cc2Cl)cccc1-c1cccc(OCCCN2CCC(CO)(C(=O)O)C2)c1Cl (stereo partly drawn) [Example 1107, (2S)-1-(2-((5-carbamoylpyridin-3-yl)methoxy)-4-((3′-(3-(3-carboxy-3-(hydroxymethyl)pyrrolidin-1-yl)propoxy)-2′-chloro-2-methyl-[1,1′-biphenyl]-3-yl)methoxy)-5-chlorobenzyl)piperidine-2-carboxylic Acid]
pIC50 (value given as range class): 8.00 to 9.68

Compound: Cc1c(COc2cc(OCc3cncc(C#N)c3)c(CN[C@](C)(CO)C(=O)O)cc2Cl)cccc1-c1cccc(OCCCN2CCC(CO)(C(=O)O)C2)c1Cl (stereo partly drawn) [Example 1108, 1-(3-((3′-((4-((((R)-2-carboxy-1-hydroxypropan-2-yl)amino)methyl)-2-chloro-5-((5-cyanopyridin-3-yl)methoxy)phenoxy)methyl)-2-chloro-2′-methyl-[1,1′-biphenyl]-3-yl)oxy)propyl)-3-(hydroxymethyl)pyrrolidine-3-carboxylic Acid]
pIC50 (value given as range class): 8.00 to 9.68
